Assay [1] addresses Stromelysin-1 (Homo sapiens) (UniProt P08254). The assay is described as follows: Inhibition of MMP3.
Assay [2] concerns the target T1, Caspase-1 (Homo sapiens) (UniProt P29466).
T1 sequence (whole entry): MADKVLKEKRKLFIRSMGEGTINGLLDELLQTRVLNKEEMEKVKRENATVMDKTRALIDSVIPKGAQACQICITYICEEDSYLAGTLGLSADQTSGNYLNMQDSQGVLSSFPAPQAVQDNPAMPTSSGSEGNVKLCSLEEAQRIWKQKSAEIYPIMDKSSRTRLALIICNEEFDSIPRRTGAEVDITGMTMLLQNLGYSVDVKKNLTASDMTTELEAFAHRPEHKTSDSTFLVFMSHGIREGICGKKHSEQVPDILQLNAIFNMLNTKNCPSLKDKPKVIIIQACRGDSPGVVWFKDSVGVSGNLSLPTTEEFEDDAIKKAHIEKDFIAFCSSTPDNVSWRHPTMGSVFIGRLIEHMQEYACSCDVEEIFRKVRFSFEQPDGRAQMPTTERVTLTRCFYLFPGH
The experiment in a line: Inhibition of caspase 1.

Values after ≈ are worked out from the molar mass of the structure shown.

Sequence of Stromelysin-1 (Homo sapiens) (P08254 100-477 limits assumed): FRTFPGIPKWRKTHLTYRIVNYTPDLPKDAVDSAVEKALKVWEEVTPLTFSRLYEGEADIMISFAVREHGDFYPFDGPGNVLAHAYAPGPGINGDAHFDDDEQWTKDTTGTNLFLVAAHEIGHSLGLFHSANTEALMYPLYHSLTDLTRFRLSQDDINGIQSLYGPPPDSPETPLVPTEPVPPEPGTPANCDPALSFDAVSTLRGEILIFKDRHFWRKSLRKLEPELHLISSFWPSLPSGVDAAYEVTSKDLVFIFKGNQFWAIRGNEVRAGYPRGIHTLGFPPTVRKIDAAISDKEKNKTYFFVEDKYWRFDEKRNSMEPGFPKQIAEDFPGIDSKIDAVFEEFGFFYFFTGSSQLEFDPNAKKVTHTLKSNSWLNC

`C=C(CCC=C(C)C)[C@H]1C[C@@H](O)[C@](C)(O)[C@@H](O)C1=O`: the MIC50 in assay [1] was found to be 0.3 µM (≈ 0.0805 µg/mL); in assay [2] it was 30 µM (≈ 8.05 µg/mL).

As for `CC(C)=CCC/C(C)=C1\C[C@@H](O)[C@](C)(O)[C@@H](O)C1=O`, the MIC50 in assay [1] turned out to be 0.3 µM (≈ 0.0805 µg/mL); in assay [2] it was 30 µM (≈ 8.05 µg/mL).

Take `C=C(CCC=C(C)C)C1=C[C@@H](O)[C@](C)(O)[C@@H](O)C1=O`: the MIC50 came to 0.3 µM (≈ 0.0799 µg/mL) in assay [1] and 30 µM (≈ 7.99 µg/mL) in assay [2].

(Values after ChEMBL document CHEMBL1148206, “Novel sesquiterpenoid matrix metalloproteinase-3 inhibitors from an acid mine waste extremophile” (J Nat Prod, 2004).)
